Molecules are shown by their SMILES.

We go through 1 compound from patent US8252832B2, “Kinesin inhibitors as cancer therapeutics” (Novartis AG, priority 2007, dated 2012).

The subject of test [1] is panel of cell lines derived from solid tumors. The test is described as follows: Solid tumor cell line panel, fraction of surviving cells after 72 hours. It is filed as cell-based. The method, then: Compound IIa was tested against a panel of cell lines derived from solid tumors as described in See also McDermott, U., Sharma, S. V., Dowell, L., Greninger, P., Montagut, C., Lamb, J., Archibald, H., Raudales, R., Tam, A., Lee, D., Rothenberg, S. M., Supko, J. G., Sordella, R., Ulkus, L. E., Iafrate, A. J., Maheswaran, S., Njauw, C. N., Tsao, H., Drew, L., Hanke, J. H., Ma, X. J., Erlander, M. G., Gray, N. S., Haber, D. A., and Settleman, J. (2007), Identification of genotype-correlated sensitivity to selective kinase inhibitors by using high-throughput tumor cell line profiling. Proc. Natl. Acad. Sci. U.S. A 104, 19936-19941 (2007).) Cells were treated with the compound for 72 hours and the fraction of surviving cells, as compared to an untreated control, was reported. Table 17 lists the name of the cell line, the organ of origin, the fraction of surviving cells at the three concentrations tested (0.2 nM, 2.0 nM and 20 nM) and a sensitivity score. The sensitivity score was from 5 (most sensitive) to 1 (least sensitive) and the scoring was as follows: 5=surviving fraction≦0.2 at 0.2 nM; 4=0.2<surviving fraction≦0.5 at 0.2 nM; 3=surviving fraction>0.5 at 0.2 nM and ≦0.5 at 2.0 nM; 2=surviving fraction>0.5 at 2.0 nM and ≦0.5 at 20 nM; 1=surviving fraction>0.5 at 20 nM.

Test [2] concerns primary blast cells from AML patients. The test is described as follows: Colony formation assay in methylcellulose containing medium, AML blasts. It is filed as cell-based, human. The method, then: Primary blast cells from AML patients were tested for sensitivity to compound IIa as shown below. Frozen AML blasts from peripheral blood were obtained from AllCell LLC. (Emeryville, Calif.). Three frozen vials containing ˜1×10^7 PBMCs were purchased. Peripheral blood mononuclear cells (PBMCs) from three newly diagnosed AML patients with a high percentage of blasts (#06-188, 80%; #06-366, 88%; #06-503, 73%) were cultured for several weeks and treated with the KSP inhibitors. The vials were rapidly thawed and the cells were cultured in Iscove's DMEM supplemented with 10% FBS and the following cytokines all at 10 ng/ml: GM-CSF, G-CSF, SCF, IL-3, and IL-6 (all from R&D Systems). Three assays were performed on the cells as follows: • CellTiter-Glo® assay on AML blasts. PBMCs containing AML blasts were seeded in 96-well plates (5000/well) and treated with various concentrations of the compound IIa (10 pM to 10 nM) for 48 hours before cells survival was measured as described above. GI50 values (nM) were calculated as for cell lines. • Cell cycle analysis using propidium iodide staining. […] The DNA content of the fixed and stained cells was analyzed by the BD FACSCalibur flow cytometer using the CellQuest software. • Colony formation assay in methylcellulose containing medium. […] Colonies were counted under a microscope after 2 weeks. […]

With `CC(C)(C)[C@H](c1nc(-c2cc(F)ccc2F)cn1Cc1ccccc1)N(CC[C@H](N)CF)C(=O)CO` [Compound IIa], the average sensitivity score is 3.21 in test [1] (brain); 3.00 in test [1] (cervix); 3.38 in test [1] (ovary); 3.02 in test [1] (skin); 3.32 in test [1] (stomach); 3.00 in test [1] (thyroid). Besides, in test [2] (0.5 nM and above, samples #06-366, #06-188, #06-503, 2 weeks), the colonies result is reported as “absent”. Besides, in test [2] (sample #06-366, 0.2 nM, 2 weeks), the number of colonies entry is listed as “markedly reduced”.
